Reference: patent US12491202B2, “Phospholipid ether analogs for imaging and targeted treatment of pediatric solid tumors” (Wisconsin Alumni Research Foundation, priority 2016, dated 2025)

What was measured:
[1] = test system: pediatric solid tumor cells; assay: CLR1501 uptake by flow cytometry in pediatric solid tumor cell lines; assay type: cell-based, human; conditions: 5 μM, 16-19 hours incubation, 4 hours wash; Rd, Rh-41, TC-71, TC-106, SK-N-AS, NB-1691, SAOS-2, SJ-GBM2 p<0.01; CHLA-20, Rh-30 p≤0.02
Excerpt: (§1) FIG. 4 is a bar graph illustrating the preferential uptake of CLR1501, a fluorescent derivative of CLR1404, by pediatric solid cancer cells (rhabdomyosarcoma Rd, Rh-41; Ewing's sarcoma TC-71, TC-106; neuroblastoma SK-N-AS, NB1691; osteosarcoma SAOS-2; glioblastoma SJ-GBM2), and for reference, the adult cancer cell lines PC3 and MT-330, compared to normal human fibroblasts (HUFI), by flow cytometry. Mean±standard error (SE) from minimum 3 experiments per cell line, *P≤0.01. MFI, mean fluorescence intensity; RMS, rhabdomyosarcoma; EWS, Ewing's sarcoma; NB, neuroblastoma; OS, osteosarcoma; GB, glioblastoma, PC, prostate adenocarcinoma. Cells were plated at 5×10^5 cells/ml in triplicates in media containing 5 μM CLR1501 (fluorescent CLR1404). Mean fluorescence intensity corrected for auto-fluorescence was averaged from three experiments±standard deviation.
(§2) Each cell line (5×10^5 cells/ml) was incubated for 16-19 hours with 5 μM CLR1501, then washed with 10% FBS medium for 4 hours. Cells were then measured by flow cytometry (FACSCalibur, BD Biosciences) and analyzed using FlowJo 8.2 (Tree Star, Ashland, Oreg.). Mean fluorescence intensity (MFI) per cell was corrected for autofluorescence (FL1 index) and averaged from three experiments±standard deviation.

[2] = test system: normal human pediatric fibroblast (HUFI) cells; assay: CLR1501 uptake by flow cytometry in normal fibroblasts; assay type: cell-based; conditions: 5 μM, 16-19 hours incubation; compared with pediatric tumor cell lines
Excerpt: as §1, §2

[3] = test system: xenografted pediatric solid tumor tissue (Rh30, TC-71, CHLA-20, NB-1691); assay: In vivo uptake of 124I-CLR1404 by PET/CT in xenografted mice; set-up: species or system mouse; conditions: NSG mice, 8-13 μCi/g via tail vein injection
Protocol: Specifically, […] with one of four different pediatric tumor cell lines (CHLA-20 (neuroblastoma), NB-1691 (neuroblastoma), TC-71 (Ewing sarcoma), and Rh-30 (rhabdomyosarcoma). For each of the sixteen xenografted mice, 100 μl cell suspension containing 3×10^6 tumor cells (>95% viability, passage 5-25) was inoculated into subcutaneous tissue of the left flank of a 6-8 week-old NSG mouse (NOD.Cg-Prdc^scidII2rg^tm1Wj1/SzJ, Jackson Laboratory, Bar Harbor, Me.). Once xenograft tumors measured a minimum of about 7×7 mm, the mice received ^124I-CLR1404 at 8-13 μCi/g via tail vein injection. After an uptake period, PET/CT imaging was performed on the mice at 5 and 6 time-points. Following image acquisition, the images were reconstructed, co-registered, resampled, rescaled, and corrected for partial volume effects (PVE), and masked.

[4] = test system: Rh30 rhabdomyosarcoma xenograft; assay: Tumor growth rate, linear mixed effects model, Rh30 xenograft; assay type: in vivo, mouse; conditions: 3.5 μCi/g, excipient slope 0.18, P <0.0001
Protocol: (§3) Rh30, TC-71, TC-106, CHLA-20, NB-1691, and SAOS-2 subcutaneous flank xenografts were induced in mice, as described in Example 2 above. Tumors were measured twice weekly with calipers, and the tumor volume was calculated. When tumors reached a volume of approximately 50 mm^3, mice were randomly assigned to receive either ^131I-CLR1404 in doses of 3.5 μCi/g or an excipient (equimolar ^127I-CLR1404), and measurement of tumor size continued. Survival rates as a function of time were also observed in the xenografted mice.
(§4) A linear mixed effects analysis of predicted growth rate was performed using the tumor size data described above. The results are shown in Table 1 below, and in graphical form in FIG. 10.

[5] = test system: TC-71 Ewing's sarcoma xenograft; assay: Tumor growth rate, linear mixed effects model, TC-71 xenograft; assay type: in vivo, mouse; conditions: 3.5 μCi/g, excipient slope 0.14, P <0.0003
Protocol: as §3, §4

[6] = test system: TC-106 Ewing's sarcoma xenograft; assay: Tumor growth rate, linear mixed effects model, TC-106 xenograft; assay type: in vivo, mouse; conditions: 3.5 μCi/g, excipient slope 0.26, P <0.0001
Protocol: as §3, §4

[7] = test system: CHLA-20 neuroblastoma xenograft; assay: Tumor growth rate, linear mixed effects model, CHLA-20 xenograft; assay type: in vivo, mouse; conditions: 3.5 μCi/g, excipient slope 0.13, P 0.0124
Protocol: as §3, §4

[8] = test system: NB-1691 neuroblastoma xenograft; assay: Tumor growth rate, linear mixed effects model, NB-1691 xenograft; assay type: in vivo, mouse; conditions: 3.5 μCi/g, excipient slope 0.15, P <0.0001
Protocol: as §3, §4

[9] = test system: SAOS-2 osteosarcoma xenograft; assay: Tumor growth rate, linear mixed effects model, SAOS-2 xenograft; assay type: in vivo, mouse; conditions: 3.5 μCi/g, excipient slope 0.11, P <0.0001
Protocol: as §3, §4

[10] = test system: pediatric solid cancer xenografts; assay: Tumor volume, survival and toxicity in pediatric solid cancer xenograft NSG models; assay type: in vivo, mouse; conditions: 3.5 μCi/g
Protocol: as §3

In the case of `C[N+](C)(C)CCOP(=O)([O-])OCCCCCCCCCCCCCCCCCCc1ccc(C2=C3C=CC=[N+]3[B-](F)(F)n3cccc32)cc1` [CLR1501], the “CLR1501 uptake (mean fluorescence intensity) versus normal pediatric fibroblast (HUFI) cells” value [1] is reported as “significantly higher” and the “CLR1501 uptake in normal cells” value [2] is reported as “much less uptake”.
For `C[N+](C)(C)CCOP(=O)([O-])OCCCCCCCCCCCCCCCCCCc1ccc([124I])cc1` [^124I-CLR1404], the “Uptake into xenografted tumor tissue (PET/CT)” value [3] was “differential uptake”.
In the case of `C[N+](C)(C)CCOP(=O)([O-])OCCCCCCCCCCCCCCCCCCc1ccc([131I])cc1` [^131I-CLR1404], the “Slope log volume (prediction of the tumor growth rate)” value [4] is reported as 0.06, the “Slope log volume (prediction of the tumor growth rate)” value [5] is reported as 0.08 and the “Slope log volume (prediction of the tumor growth rate)” value [6] is reported as 0.10. The “Slope log volume (prediction of the tumor growth rate)” value [7] was 0.09, the “Slope log volume (prediction of the tumor growth rate)” value [8] was 0.09 and the “Slope log volume (prediction of the tumor growth rate)” value [9] was 0.08. The Toxicity ([10]; xenografted mice) was “low toxicity”, the “Mean tumor volumes versus excipient” value ([10]; Rh30, TC-71, CHLA-20 and NB-1691 xenografts) was “decreased mean tumor volumes” and the “Animal survival versus excipient” value ([10]; four groups, statistically significant in Ewing's sarcoma and rhabdomyosarcoma xenografts) was “extended animal survival”.
